Read-outs that look alike come from different tables or passages of the source.
Tests used:
[1] = system: various metalloproteases; assay: in vitro inhibition of various metalloproteases (Table 4); format: biochemical; conditions: Table 4, in vitro
Protocol: (§1) Inhibition is indicated as IC50 with the following key: A=IC50 less than 50 nM, B=IC50 greater than 50 nM, but less than 1000 nM, C=IC50 greater than […], but less than 20,000 nM, and D=IC50 greater than 20,000 nM.

[2] = biological target: T1, hADAM-10 (UniProt O14672); assay: ADAM-10 enzyme assay: cleavage of fluorogenic 10-residue peptide (DABCYL/EDANS); format: biochemical, human; conditions: Table 4, in vitro
T1 sequence (O14672 1-748): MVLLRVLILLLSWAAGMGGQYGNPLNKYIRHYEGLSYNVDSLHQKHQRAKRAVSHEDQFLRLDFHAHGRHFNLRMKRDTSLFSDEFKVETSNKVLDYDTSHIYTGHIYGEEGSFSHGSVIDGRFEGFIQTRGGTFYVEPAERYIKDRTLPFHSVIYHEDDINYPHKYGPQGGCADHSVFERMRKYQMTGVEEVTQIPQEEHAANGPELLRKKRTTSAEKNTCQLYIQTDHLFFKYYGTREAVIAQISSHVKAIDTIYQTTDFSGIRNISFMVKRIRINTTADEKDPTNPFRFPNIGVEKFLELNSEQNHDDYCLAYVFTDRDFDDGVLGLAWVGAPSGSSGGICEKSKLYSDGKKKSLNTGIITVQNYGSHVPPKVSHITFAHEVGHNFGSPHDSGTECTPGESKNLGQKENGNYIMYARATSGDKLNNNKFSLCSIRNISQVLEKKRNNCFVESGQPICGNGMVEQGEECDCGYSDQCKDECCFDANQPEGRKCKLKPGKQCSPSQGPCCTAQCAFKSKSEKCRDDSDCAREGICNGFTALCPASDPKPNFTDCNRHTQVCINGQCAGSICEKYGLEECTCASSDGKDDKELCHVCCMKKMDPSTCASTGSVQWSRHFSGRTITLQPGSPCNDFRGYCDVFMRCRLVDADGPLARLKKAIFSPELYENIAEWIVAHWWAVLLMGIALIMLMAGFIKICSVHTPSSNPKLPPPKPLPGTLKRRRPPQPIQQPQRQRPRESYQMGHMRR
Protocol: mADAM-10 or hADAM-10 activity was measured as the ability to cleave a 10-residue peptide (DABCYL-Leu-Leu-Ala-Gln-Lys-*-Leu-Arg-Ser-Ser-Arg-EDANS). […] Enzyme was diluted to a final active concentration of 5 nM in Buffer A (50 mM HEPES 8.0, 100 mM NaCl, 1 mM CaCl2 and 0.01% NP-40). Serial dilutions for compounds were performed ranging from 100 uM to 0.5 nM using a Beckman Biomek 2000 in polypropylene plates (Greiner). 20 μl of enzyme solution was added to 10 μl of compound in buffer A, and allowed to incubate for 15 min in 384 well black, Greiner, microtiter plates (#781076). 20 μl of substrate (12.5 uM in Buffer A) was then added, resulting in final reaction conditions of 2 nM ADAM-10, 5 μM substrate, and compound concentrations ranging from 20 uM to 0.1 nM. The reaction was incubated for 2 hr at RT, and fluorescence was measured at Ex355, Em460 on a Wallac Victor 2 fluorescence reader. For final analysis of potent inhibitors, a similar reaction was set up with a final active ADAM-10 concentration of 0.1 nM. This reaction was incubated for 16 hr at RT and fluorescence was read using identical conditions.
as §1

[3] = biological target: various metalloproteases (Homo sapiens, UniProt P08254); assay: in vitro inhibition of various metalloproteases (Table 4); format: biochemical; conditions: MMP3; Table 4, in vitro
Protocol: as §1

[4] = biological target: T2, various metalloproteases (Homo sapiens, UniProt P08253); assay: as above; format: biochemical; conditions: MMP2; Table 4, in vitro
T2 sequence (P08253 110-660): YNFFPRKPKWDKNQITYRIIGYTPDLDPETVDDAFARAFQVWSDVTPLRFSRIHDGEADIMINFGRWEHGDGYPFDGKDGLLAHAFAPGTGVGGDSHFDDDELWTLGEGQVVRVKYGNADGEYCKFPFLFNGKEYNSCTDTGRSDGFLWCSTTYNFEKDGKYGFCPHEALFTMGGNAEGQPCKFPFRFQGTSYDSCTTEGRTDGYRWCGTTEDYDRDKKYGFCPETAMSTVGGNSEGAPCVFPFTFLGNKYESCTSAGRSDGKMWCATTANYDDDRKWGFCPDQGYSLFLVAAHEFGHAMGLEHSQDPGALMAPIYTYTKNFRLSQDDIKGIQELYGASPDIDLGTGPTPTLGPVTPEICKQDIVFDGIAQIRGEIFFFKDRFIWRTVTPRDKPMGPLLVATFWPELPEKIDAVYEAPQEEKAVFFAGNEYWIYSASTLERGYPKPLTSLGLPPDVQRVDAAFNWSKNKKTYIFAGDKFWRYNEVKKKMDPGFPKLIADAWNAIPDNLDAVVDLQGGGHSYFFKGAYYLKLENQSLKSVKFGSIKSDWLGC
Protocol: as §1

[5] = biological target: various metalloproteases (Homo sapiens, UniProt P45452); assay: as above; format: biochemical; conditions: MMP13; Table 4, in vitro
Protocol: as §1

Sequence of various metalloproteases (Homo sapiens, UniProt P08254) (P08254 100-477): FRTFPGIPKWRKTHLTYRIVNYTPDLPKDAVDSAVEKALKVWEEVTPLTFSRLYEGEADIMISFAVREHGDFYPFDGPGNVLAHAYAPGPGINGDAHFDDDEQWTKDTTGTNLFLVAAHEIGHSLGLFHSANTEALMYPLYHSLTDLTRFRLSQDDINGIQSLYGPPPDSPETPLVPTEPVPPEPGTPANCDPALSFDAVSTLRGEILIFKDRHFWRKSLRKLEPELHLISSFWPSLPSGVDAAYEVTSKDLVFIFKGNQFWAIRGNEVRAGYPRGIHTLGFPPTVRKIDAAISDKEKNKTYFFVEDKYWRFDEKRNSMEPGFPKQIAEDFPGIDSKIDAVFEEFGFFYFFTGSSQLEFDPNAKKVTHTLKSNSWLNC

`NCCCC[C@@H](NS(=O)(=O)c1ccc(Oc2ccccc2)cc1)C(=O)NO` [Compound 13, N^1-hydroxy-N^2-{[4-(phenyloxy)phenyl]sulfonyl}-D-lysinamide] was tested, and the IC50 ([1]; MMP1, read-out: MMP1 IC50) was < 50 nM, the IC50 ([1]; MMP2, read-out: MMP2 IC50) was < 50 nM and the IC50 ([1]; TACE, read-out: TACE IC50) was 50 to 1000 nM. For the same molecule, the IC50 [2] was < 50 nM.
In the case of `Cc1cc(C)cc(Oc2c(F)cc(S(=O)(=O)N[C@@H](CC3CCC(CN)CC3)C(=O)NO)cc2F)c1` (some centres unmarked) [Compound 106, 3-[4-(aminomethyl)cyclohexyl]-N^2-({4-[(3,5-dimethylphenyl)oxy]-3,5-difluorophenyl}sulfonyl)-N^1-hydroxyalaninamide], the IC50 [2] is reported as 50 to 20000 nM.
`NCC1CCC(C[C@H](NS(=O)(=O)c2ccc(-c3cccc(F)c3)nc2)C(=O)NO)CC1` (some centres unmarked) [Compound 105, 3-[4-(aminomethyl)cyclohexyl]-N^2-{[6-(3-fluorophenyl)pyridin-3-yl]sulfonyl}-N^1-hydroxyalaninamide] was tested, and the IC50 [3] was 50 to 1000 nM, the IC50 [4] was < 50 nM and the IC50 [5] was < 50 nM. The IC50 [2] was < 50 nM.
With “3-{1-[(Z)-(cyanoimino)(propylamino)methyl]piperidin-4-yl}-N^1-hydroxy-N^2-[(4-phenoxyphenyl)sulfonyl]alaninamide [Compound 41]” the IC50 ([1]; MMP1, read-out: MMP1 IC50) was 50 to 20000 nM, the IC50 ([1]; MMP3, read-out: MMP3 IC50) was < 50 nM and the IC50 ([1]; MMP13, read-out: MMP13 IC50) was < 50 nM. For the same molecule, the IC50 ([1]; TACE, read-out: TACE IC50) was < 50 nM and the IC50 [2] was < 50 nM.
With `Cc1cc(C)cc(Oc2c(F)cc(S(=O)(=O)NC(C(=O)NO)C3CCNCC3)cc2F)c1` (centres unmarked) [Compound 99, N^2-[({4-[(3,5-dimethylphenyl)oxy]-3,5-difluorophenyl}sulfonyl)amino]-N^1-hydroxy-2-piperidin-4-ylacetamide] the IC50 ([1]; MMP2, read-out: MMP2 IC50) was < 50 nM, the IC50 ([1]; MMP3, read-out: MMP3 IC50) was < 50 nM and the IC50 ([1]; MMP13, read-out: MMP13 IC50) was < 50 nM. For the same molecule, the IC50 [2] was < 50 nM.
With `CC(C)(SCC(=O)N1CCOCC1)[C@@H](NS(=O)(=O)c1cc(F)c(Oc2ccc(Cl)cc2)c(F)c1)C(=O)NO` [Compound 91, N^2-({4-[(4-chlorophenyl)oxy]-3,5-difluorophenyl}sulfonyl)-N^1-hydroxy-3-[(2-morpholin-4-yl-2-oxoethyl)thio]-D-valinamide] the IC50 ([1]; MMP2, read-out: MMP2 IC50) was < 50 nM.
`N=C(N)NCCC[C@@H](NS(=O)(=O)c1ccc(Oc2ccccc2)cc1)C(=O)NO` [Compound 2, N^1-hydroxy-N^2-[(4-phenoxyphenyl)sulfonyl]-D-argininamide] was tested, and the IC50 ([1]; MMP1, read-out: MMP1 IC50) was 50 to 20000 nM, the IC50 ([1]; MMP2, read-out: MMP2 IC50) was < 50 nM and the IC50 ([1]; MMP3, read-out: MMP3 IC50) was 50 to 1000 nM. The IC50 ([1]; MMP8, read-out: MMP8 IC50) was < 50 nM, the IC50 ([1]; MMP9, read-out: MMP9 IC50) was < 50 nM and the IC50 ([1]; MMP13, read-out: MMP13 IC50) was < 50 nM. For the same molecule, the IC50 ([1]; TACE, read-out: TACE IC50) was 50 to 1000 nM and the IC50 [2] was < 50 nM.
With `N#Cc1ccc(C[C@@H](NS(=O)(=O)c2cc(F)c(Oc3ccc(F)cc3)c(F)c2)C(=O)NO)cc1` [Compound 72, 4-cyano-N^2-({3,5-difluoro-4-[(4-fluorophenyl)oxy]phenyl}sulfonyl)-N^1-hydroxy-D-phenylalaninamide] the IC50 ([1]; MMP1, read-out: MMP1 IC50) was 50 to 20000 nM, the IC50 ([1]; MMP2, read-out: MMP2 IC50) was < 50 nM and the IC50 ([1]; MMP3, read-out: MMP3 IC50) was 50 to 1000 nM. The IC50 ([1]; MMP13, read-out: MMP13 IC50) was < 50 nM and the IC50 [2] was 50 to 1000 nM.
For “3-(1-{(Z)-[(aminocarbonyl)imino][(2-methoxyethyl)amino]methyl}piperidin-4-yl)-N^1-hydroxy-N^2-[(4-phenoxyphenyl)sulfonyl]alaninamide [Compound 44]”, the IC50 ([1]; MMP1, read-out: MMP1 IC50) was < 50 nM, the IC50 ([1]; MMP2, read-out: MMP2 IC50) was < 50 nM and the IC50 ([1]; MMP3, read-out: MMP3 IC50) was < 50 nM. For the same molecule, the IC50 ([1]; MMP13, read-out: MMP13 IC50) was < 50 nM.
`N=C(N)NCCC[C@@H](NS(=O)(=O)c1ccc(Oc2ccc(F)cc2)nc1)C(=O)NO` [Compound 68, N^2-({6-[(4-fluorophenyl)oxy]pyridin-3-yl}sulfonyl)-N^1-hydxoxy-D-argininamide] was tested, and the IC50 ([1]; MMP1, read-out: MMP1 IC50) was 50 to 20000 nM, the IC50 ([1]; MMP3, read-out: MMP3 IC50) was 50 to 1000 nM and the IC50 ([1]; MMP13, read-out: MMP13 IC50) was < 50 nM. For the same molecule, the IC50 [2] was < 50 nM.
In the case of `CN(C)CC[C@@H](NS(=O)(=O)c1cc(F)c(Oc2ccc(Cl)cc2)c(F)c1)C(=O)NO` [Compound 89, (2R)-N^2-[({4-[(4-chlorophenyl)oxy]-3,5-difluorophenyl}sulfonyl)amino]-4-(dimethylamino)-N^1-hydroxybutanamide], the IC50 ([1]; MMP2, read-out: MMP2 IC50) is reported as < 50 nM, the IC50 ([1]; MMP3, read-out: MMP3 IC50) is reported as 50 to 20000 nM and the IC50 ([1]; MMP13, read-out: MMP13 IC50) is reported as 50 to 1000 nM. The IC50 [2] was < 50 nM.
With `O=C(NO)C(NS(=O)(=O)c1ccc(Oc2ccc(F)cc2)cc1)C1CCNCC1` (centres unmarked) [Compound 97, N^2-[({4-[(4-fluorophenyl)oxy]phenyl}sulfonyl)amino]-N^1-hydroxy-2-piperidin-4-ylacetamide] the IC50 ([1]; MMP3, read-out: MMP3 IC50) was < 50 nM, the IC50 ([1]; MMP13, read-out: MMP13 IC50) was < 50 nM and the IC50 [2] was < 50 nM.
“N^6-[(E)-(cyanoimino)(propylamino)methyl]-N^1-hydroxy-N^2-[(4-phenoxyphenyl)sulfonyl]-D-lysinamide [Compound 23]” was tested, and the IC50 ([1]; MMP1, read-out: MMP1 IC50) was 50 to 1000 nM, the IC50 ([1]; MMP2, read-out: MMP2 IC50) was < 50 nM and the IC50 ([1]; MMP3, read-out: MMP3 IC50) was < 50 nM. For the same molecule, the IC50 ([1]; MMP13, read-out: MMP13 IC50) was < 50 nM, the IC50 ([1]; TACE, read-out: TACE IC50) was < 50 nM and the IC50 [2] was < 50 nM.

Reference: patent publication US7498358B2, “Human ADAM-10 inhibitors” (Exelixis, Inc., priority 2001, dated 2009)
